Experimental data as given in US8207178B2 (priority 2007, dated 2012).

How the values were obtained:
Assay in all cases: microbe, parasite or virus in culture
Format in all cases: cell-based, human immunodeficiency virus type 1 (HIV-1)
HIV-1 Y188L mutant = details: Human immunodeficiency virus 1, HeLa, read-out: EC50 mutant Y188L
wild type HIV-1 = details: Human immunodeficiency virus 1, Hela-JC53
HIV-1 K103N-L100I mutant = details: Human immunodeficiency virus 1, HeLa, read-out: EC50 mutant K103N-L100I, mutant K103N-L100I
HIV-1 K103N-Y181C mutant = details: Human immunodeficiency virus 1, HeLa, read-out: EC50 mutant K103N-Y181C
HIV-1 K103N mutant = details: Human immunodeficiency virus 1, HeLa, read-out: EC50 mutant K103N

Compound Cc1cc(-c2cc(C)c(Oc3nc(Nc4ccc(C#N)cc4)nc4ccn(C)c34)c(C)c2)ccn1 [Example 8, 4-(4-(2,6-Dimethyl-4-(2-methylpyridin-4-yl)phenoxy)-5-methyl-5H-pyrrolo[3,2-d]pyrimidin-2-ylamino) benzonitrile] has an EC50 (HIV-1 Y188L mutant) greater than 10 nM, an EC50 (wild type HIV-1) of 1 to 10 nM and an EC50 (HIV-1 K103N-L100I mutant) greater than 10 nM. For the same compound, the EC50 (HIV-1 K103N-Y181C mutant) was greater than 10 nM and the EC50 (HIV-1 K103N mutant) was greater than 10 nM.

Work on Cc1cc(-c2cccc3cnccc23)cc(C)c1Oc1nc(Nc2ccc(C#N)cc2)nc2ccn(C)c12 [Example 39, 4-(4-(4-(Isoquinolin-5-yl)-2,6-dimethylphenoxy)-5-methyl-5H-pyrrolo[3,2-d]pyrimidin-2-ylamino) benzonitrile] yielded an EC50 (wild type HIV-1) greater than 10 nM and an EC50 (HIV-1 K103N-L100I mutant) greater than 10 nM.

In the case of Cc1cc(-c2cc(F)c(F)c(F)c2)cc(C)c1Oc1nc(Nc2ccc(C#N)cc2)nc2ccn(C)c12 [Example 66], the EC50 (wild type HIV-1) is reported as less than 1 nM and the EC50 (HIV-1 K103N-L100I mutant) is reported as 1 to 10 nM.

Cc1cc(-c2ccc(F)c(C#N)c2)cc(C)c1Oc1nc(Nc2ccc(C#N)cc2)nc2ccn(C)c12 [Example 63, 4′-(2-(4-cyanophenylamino)-5-methyl-5H-pyrrolo[3,2-d]pyrimidin-4-yloxy)-4-fluoro-3′,5′-dimethylbiphenyl-3-carbonitrile] showed an EC50 (wild type HIV-1) of less than 1 nM and an EC50 (HIV-1 K103N-L100I mutant) of 1 to 10 nM.

Cc1cc(-c2cc(F)nc(F)c2)cc(C)c1Oc1nc(Nc2ccc(C#N)cc2)nc2ccn(C)c12 [Example 4, 4-(4-(4-(2,6-Difluoropyridin-4-yl)-2,6-dimethylphenoxy)-5-methyl-5H-pyrrolo[3,2-d]pyrimidin-2-ylamino) benzonitrile] showed an EC50 (wild type HIV-1) of 1 to 10 nM and an EC50 (HIV-1 K103N-L100I mutant) greater than 10 nM.

Compound Cc1cc(-c2ccncc2)cc(C)c1Nc1nc(Nc2ccc(C#N)cc2)nc2ccn(C)c12 [Example 19, 4-(4-(2,6-Dimethyl-4-(pyridin-4-yl)phenylamino)-5-methyl-5H-pyrrolo[3,2-d]pyrimidin-2-ylamino)benzonitrile] has an EC50 (wild type HIV-1) of less than 1 nM and an EC50 (HIV-1 K103N-L100I mutant) of 1 to 10 nM.

Cc1cc(-c2ccc(C(N)=O)cc2F)cc(C)c1Oc1nc(Nc2ccc(C#N)cc2)nc2ncn(C)c12 [Example 55, 4′-(2-(4-Cyanophenylamino)-7-methyl-7H-purin-6-yloxy)-2-fluoro-3′,5′-dimethylbiphenyl-4-carboxamide] showed an EC50 (wild type HIV-1) of 1 to 10 nM and an EC50 (HIV-1 K103N-L100I mutant) of 1 to 10 nM.

With Cc1cc(C#N)cc(C)c1Nc1nc(Oc2ccc(-c3ccncc3)cc2)c2nc[nH]c2n1 [Example 106, 3,5-Dimethyl-4-(6-(4-(pyridin-4-yl)phenoxy)-9H-purin-2-ylamino)benzonitrile] the EC50 (wild type HIV-1) was greater than 10 nM and the EC50 (HIV-1 K103N-L100I mutant) was greater than 10 nM.

Cc1cc(-c2ccc(S(=O)(=O)NC3CC3)cc2)cc(C)c1Oc1nc(Nc2ccc(C#N)cc2)nc2ccn(C)c12 [Example 85, 4′-(2-(4-cyanophenylamino)-5-methyl-5H-pyrrolo[3,2-d]pyrimidin-4-yloxy)-N-cyclopropyl-3′,5′-dimethylbiphenyl-4-sulfonamide] gave an EC50 (wild type HIV-1) of 1 to 10 nM and an EC50 (HIV-1 K103N-L100I mutant) greater than 10 nM.

With Cc1cc(-c2cccc(N(C)C)c2)cc(C)c1Oc1nc(Nc2ccc(C#N)cc2)nc2ccn(C)c12 [Example 33, 4-(4-(3′-(Dimethylamino)-3,5-dimethylbiphenyl-4-yloxy)-5-methyl-5H-pyrrolo [3,2-d]pyrimidin-2-ylamino) benzonitrile] the EC50 (wild type HIV-1) was greater than 10 nM and the EC50 (HIV-1 K103N-L100I mutant) was greater than 10 nM.

For Cc1cc(-c2ccncc2)cc(Cl)c1Oc1nc(Nc2ccc(C#N)cc2)nc2nc[nH]c12 [Example 100, 4-(6-(2-Chloro-6-methyl-4-(pyridin-4-yl)phenoxy)-7H-purin-2-ylamino)benzonitrile], the EC50 (wild type HIV-1) was 1 to 10 nM and the EC50 (HIV-1 K103N-L100I mutant) was greater than 10 nM.

Compound Cc1cc(-c2ccc(F)cc2)cc(C)c1Oc1nc(Nc2ccc(C#N)cc2)nc2ccn(C)c12 [Example 62, 4-(4-(4′-fluoro-3,5-dimethylbiphenyl-4-yloxy)-5-methyl-5H-pyrrolo[3,2-d]pyrimidin-2-ylamino) benzonitrile] has an EC50 (wild type HIV-1) of 1 to 10 nM and an EC50 (HIV-1 K103N-L100I mutant) greater than 10 nM.

COc1ncc(-c2cc(C)c(Oc3nc(Nc4ccc(C#N)cc4)nc4ccn(C)c34)c(C)c2)cn1 [Example 20, 4-(4-(4-(2-Methoxypyrimidin-5-yl)-2,6-dimethylphenoxy)-5-methyl-5H-pyrrolo [3,2-d]pyrimidin-2-ylamino)benzonitrile] gave an EC50 (wild type HIV-1) of less than 1 nM and an EC50 (HIV-1 K103N-L100I mutant) of 1 to 10 nM.

In the case of Cc1cc(-c2ccc(C(=O)N(C)C)cn2)cc(C)c1Oc1nc(Nc2ccc(C#N)cc2)nc2[nH]cnc12 [Example 128, 6-(4-(2-(4-cyanophenylamino)-9H-purin-6-yloxy)-3,5-dimethylphenyl)-N,N-dimethylnicotinamide], the EC50 (wild type HIV-1) is reported as 1 to 10 nM and the EC50 (HIV-1 K103N-L100I mutant) is reported as greater than 10 nM.

With COc1cncc(-c2cc(C)c(Oc3nc(Nc4ccc(C#N)cc4)nc4ccn(C)c34)c(C)c2)c1 [Example 87, 4-(4-(4-(5-methoxypyridin-3-yl)-2,6-dimethylphenoxy)-5-methyl-5H-pyrrolo[3,2-d]pyrimidin-2-ylamino) benzonitrile] the EC50 (wild type HIV-1) was 1 to 10 nM and the EC50 (HIV-1 K103N-L100I mutant) was greater than 10 nM.

Cc1cc(-c2cncc3ccccc23)cc(C)c1Oc1nc(Nc2ccc(C#N)cc2)nc2ccn(C)c12 [Example 40, 4-(4-(4-(Isoquinolin-4-yl)-2,6-dimethylphenoxy)-5-methyl-5H-pyrrolo[3,2-d]pyrimidin-2-ylamino) benzonitrile] gave an EC50 (wild type HIV-1) of 1 to 10 nM and an EC50 (HIV-1 K103N-L100I mutant) greater than 10 nM.

With Cc1cc(-c2ccc(C#N)cc2)cc(C)c1Oc1nc(Nc2ccc(C#N)cc2)nc2ccn(C)c12 [Example 44, 4′-(2-(4-Cyanophenylamino)-5-methyl-5H-pyrrolo[3,2-d]pyrimidin-4-yloxy)-3′,5′-dimethylbiphenyl-4-carbonitrile] the EC50 (wild type HIV-1) was 1 to 10 nM and the EC50 (HIV-1 K103N-L100I mutant) was 1 to 10 nM.

Work on Cc1cc(-c2ccc(S(N)(=O)=O)cc2)cc(C)c1Oc1nc(Nc2ccc(C#N)cc2)nc2c1ncn2C [Example 52, 4′-(2-(4-Cyanophenylamino)-9-methyl-9H-purin-6-yloxy)-3′,5′-dimethylbiphenyl-4-sulfonamide] yielded an EC50 (wild type HIV-1) of less than 1 nM and an EC50 (HIV-1 K103N-L100I mutant) of 1 to 10 nM.

With COc1ccc(Cn2cnc3nc(Nc4ccc(C#N)cc4)nc(Oc4c(Cl)cc(-c5ccncc5)cc4Cl)c32)cc1 [Example 103, 4-(6-(2,6-Dichloro-4-(pyridin-4-yl)phenoxy)-7-(4-methoxybenzyl)-7H-purin-2-ylamino)benzonitrile] the EC50 (wild type HIV-1) was 1 to 10 nM and the EC50 (HIV-1 K103N-L100I mutant) was greater than 10 nM.

In the case of Cc1cc(-c2ccsc2C#N)cc(C)c1Oc1nc(Nc2ccc(C#N)cc2)nc2ccn(C)c12 [Example 34, 3-(4-(2-(4-Cyanophenylamino)-5-methyl-5H-pyrrolo [3,2-d]pyrimidin-4-yloxy)-3,5-dimethylphenyl) thiophene-2-carbonitrile], the EC50 (wild type HIV-1) is reported as 1 to 10 nM and the EC50 (HIV-1 K103N-L100I mutant) is reported as 1 to 10 nM.

Cc1cc(-c2cccc3cccnc23)cc(C)c1Oc1nc(Nc2ccc(C#N)cc2)nc2ccn(C)c12 [Example 43, 4-(4-(2,6-Dimethyl-4-(quinolin-8-yl)phenoxy)-5-methyl-5H-pyrrolo[3,2-d]pyrimidin-2-ylamino) benzonitrile] was tested, and the EC50 (wild type HIV-1) was 1 to 10 nM and the EC50 (HIV-1 K103N-L100I mutant) was greater than 10 nM.

Compound Cc1cc(-c2ccoc2)cc(C)c1Oc1nc(Nc2ccc(C#N)cc2)nc2ccn(C)c12 [Example 13, 4-(4-(4-(Furan-3-yl)-2,6-dimethylphenoxy)-5-methyl-5H-pyrrolo[3,2-d]pyrimidin-2-ylamino)benzonitrile] has an EC50 (wild type HIV-1) of 1 to 10 nM and an EC50 (HIV-1 K103N-L100I mutant) greater than 10 nM.

With Cc1cc(-c2cn[nH]c2)cc(C)c1Oc1nc(Nc2ccc(C#N)cc2)nc2c(Cl)cn(C)c12 [Example 32, 4-(7-Chloro-4-(2,6-dimethyl-4-(1H-pyrazol-4-yl)phenoxy)-5-methyl-5H-pyrrolo[3,2-d]pyrimidin-2-ylamino)benzonitrile] the EC50 (wild type HIV-1) was 1 to 10 nM and the EC50 (HIV-1 K103N-L100I mutant) was greater than 10 nM.

COc1ccc(Cn2cnc3nc(Nc4ccc(C#N)cc4)nc(Oc4c(C)cc(-c5ccc(C(N)=O)cc5)cc4C)c32)cc1 [Example 49, 4′-(2-(4-Cyanophenylamino)-7-(4-methoxybenzyl)-7H-purin-6-yloxy)-3′,5′-dimethylbiphenyl-4-carboxamide] gave an EC50 (wild type HIV-1) of 1 to 10 nM and an EC50 (HIV-1 K103N-L100I mutant) greater than 10 nM.

Cc1cc(-c2ccccc2)cc(C)c1Oc1nc(Nc2ccc(C#N)cc2)nc2ccn(C)c12 [Example 95, 4-(4-(3,5-Dimethylbiphenyl-4-yloxy)-5-methyl-5H-pyrrolo[3,2-d]pyrimidin-2-ylamino)benzonitrile] was tested, and the EC50 (wild type HIV-1) was greater than 10 nM and the EC50 (HIV-1 K103N-L100I mutant) was greater than 10 nM.

Compound Cc1cc(-c2cnc(C#N)nc2)cc(C)c1Oc1nc(Nc2ccc(C#N)cc2)nc2ccn(C)c12 [Example 30, 5-(4-(2-(4-Cyanophenylamino)-5-methyl-5H-pyrrolo[3,2-d]pyrimidin-4-yloxy)-3,5-dimethylphenyl)pyrimidine-2-carbonitrile] has an EC50 (wild type HIV-1) of less than 1 nM and an EC50 (HIV-1 K103N-L100I mutant) of less than 1 nM.

For CCOC(=O)c1ccc(-c2cc(C)c(Oc3nc(Nc4ccc(C#N)cc4)nc4nc[nH]c34)c(C)c2)cn1 [Example 120, Ethyl 5-(4-(2-(4-cyanophenylamino)-7H-purin-6-yloxy)-3,5-dimethylphenyl)picolinate], the EC50 (wild type HIV-1) was greater than 10 nM and the EC50 (HIV-1 K103N-L100I mutant) was greater than 10 nM.

Cc1cc(-c2ccncc2)ccc1Oc1nc(Nc2ccc(C#N)cc2)nc2nc[nH]c12 [Example 98, 4-(6-(2-Methyl-4-(pyridin-4-yl)phenoxy)-7H-purin-2-ylamino)benzonitrile] was tested, and the EC50 (wild type HIV-1) was less than 1 nM and the EC50 (HIV-1 K103N-L100I mutant) was greater than 10 nM.

In the case of Cc1cc(-c2ccncc2)cc(C)c1Oc1nc(Nc2ccc(C#N)cc2)nc2c1ncn2C [Example 108, 4-(6-(2,6-dimethyl-4-(pyridin-4-yl)phenoxy)-9-methyl-9H-purin-2-ylamino)benzonitrile], the EC50 (wild type HIV-1) is reported as 1 to 10 nM and the EC50 (HIV-1 K103N-L100I mutant) is reported as 1 to 10 nM.

Cc1cc(-c2ccc(S(N)(=O)=O)cc2)cc(C)c1Oc1nc(Nc2ccc(C#N)cc2)nc2ccn(C)c12 [Example 72, 4′-(2-(4-cyanophenylamino)-5-methyl-5H-pyrrolo[3,2-d]pyrimidin-4-yloxy)-3′,5′-dimethylbiphenyl-4-sulfonamide] gave an EC50 (wild type HIV-1) of 1 to 10 nM and an EC50 (HIV-1 K103N-L100I mutant) of less than 1 nM.
